From patent US20220024882A1, “NOVEL TUMOR ANTIGEN BINDING AGENTS AND USES THEREOF” (ITM Isotopen Technologien München AG, priority 2018, published 2022)
Several values for one entry are separate records, joined by “and”; a condition that tells them apart may be missing. Equal entries are not always repeated.

Assays:
[1] = Whole-body activity measurements, tumor-bearing mice; assay type: in vivo, athymic nude Balb/c mice; settings: 4 h p.i., 30 MBq, 1 nmol i.v., activity right after injection = 100%
Method: (§1) In vivo experiments were approved by the local veterinarian department and conducted in accordance with the Swiss law of animal protection. Mice were obtained from Charles River Laboratories, Sulzfeld, Germany, at the age of 5-6 weeks. Female, athymic nude Balb/c mice were subcutaneously inoculated with PSMA-positive PC-3 PIP cells (6×10^6 cells in 100 μL Hank's balanced salt solution (HBSS) with Ca^2+/Mg^2+) on the right shoulder and with PSMA-negative PC-3 flu cells (5×10^6 cells in 100 μL HBSS Ca^2+/Mg^2+) on the left shoulder. Two weeks later, the tumors reached a size of about 80-300 mm^3 suitable for the performance of the imaging studies.
The single radioligands (specific activity: 30 MBq/nmol) were diluted in 0.9% NaCl containing 0.05% bovine serum albumin (BSA) and i.v. injected into PC-3 PIP/flu tumor bearing mice (30 MBq, 1 nmol, 100 μL) for SPECT/CT imaging purposes. The mice were measured in a dose calibrator at 4 h, 24 h, 48 h and 72 h p.i., respectively.

[2] = test system: PC-3 PIP/flu tumor-bearing mice; test: Biodistribution study in PC-3 PIP/flu tumor-bearing mice; assay type: in vivo, athymic nude Balb/c mice; settings: for Kidneys / Tumor-to-kidney / Blood / Bone / Heart / Intestines / Liver / Lung / Muscle / Salivary glands / Spleen / Stomach / Tumor-to-blood / Tumor-to-liver: PC-3 PIP/flu tumor-bearing mice; for PC-3 flu Tumor: PSMA-negative tumor xenograft; for PC-3 flu Tumor / PC-3 PIP Tumor: mice; for PC-3 PIP Tumor: PSMA-positive tumor xenograft
Method: as §1, with “biodistribution” for “imaging”
Biodistribution studies were performed 12-15 days after PC-3 PIP/flu tumor cell inoculation. […] The radioligands were injected in a lateral tail vein in a volume of 100-200 μL. Mice were euthanized at different time points after injection (p.i.) of the radioligands. Selected tissues and organs were collected, weighed and measured using a γ-counter. The results were decay-corrected and listed as a percentage of the injected activity per gram of tissue mass (% IA/g) (Table 3 and 4).
Mice were obtained from Charles River Laboratories, Sulzfeld, Germany, at the age of 5-6 weeks. Female, athymic nude BALB/c mice were subcutaneously inoculated with PSMA-positive PC-3 PIP cells (6×10^6 cells in 100 μL Hank's balanced salt solution (HBSS)) on the right shoulder and with PSMA-negative PC-3 flu cells (5×10^6 cells in 100 μL HBSS) on the left shoulder. Two weeks later, the tumors reached a size of about 80-300 mm^3 suitable for the performance of the biodistribution and imaging studies.
Biodistribution studies were performed 12-15 days after PC-3 PIP/flu tumor cell inoculation. ^177Lu-Ibu-sPSMA was diluted in 0.9% NaCl containing 0.05% bovine serum albumin (BSA) to prevent adhesion to the vial and syringe material. The radioligand was injected in a lateral tail vein in a volume of 100 μL. Mice were euthanized at different time points after injection (p.i.) of the radioligand. Selected tissues and organs were collected, weighed and measured using a γ-counter. The results were decay-corrected and listed as a percentage of the injected activity per gram of tissue mass (% IA/g) (Table 6, FIG. 18).

Structure (SMILES)	whole-body retention of radioactivity [1] [%]	Blood ([2]; 4 h p.i.) [% IA/g]	Bone ([2]; 4 h p.i.) [% IA/g]	Heart ([2]; 4 h p.i.) [% IA/g]	Intestines ([2]; 4 h p.i.) [% IA/g]	Kidneys ([2]; 4 h p.i.) [% IA/g]	Liver ([2]; 4 h p.i.) [% IA/g]	Lung ([2]; 4 h p.i.) [% IA/g]	Muscle ([2]; 4 h p.i.) [% IA/g]	Salivary glands ([2]; 4 h p.i.) [% IA/g]	Spleen ([2]; 4 h p.i.) [% IA/g]	Stomach ([2]; 4 h p.i.) [% IA/g]	Tumor-to-blood ([2]; 4 h p.i.)	Tumor-to-kidney ([2]; 4 h p.i.)	Tumor-to-liver ([2]; 4 h p.i.)	PC-3 flu Tumor ([2]; 4 h p.i.) [% IA/g]	PC-3 PIP Tumor ([2]; 4 h p.i.) [% IA/g]	Bone ([2]; 24 h p.i.) [% IA/g]	Heart ([2]; 24 h p.i.) [% IA/g]	Intestines ([2]; 24 h p.i.) [% IA/g]	further results
CC(C)Cc1ccc(C(C)C(=O)NC(CC(=O)O)C(=O)NCCCCC(NC(=O)CN2CCN(CC(=O)O)CCN(CC(=O)O)CCN(CC(=O)O)CC2)C(=O)NCC2CCC(C(=O)NC(Cc3ccc4ccccc4c3)C(=O)NCCCCC(NC(=O)NC(CCC(=O)O)C(=O)O)C(=O)O)CC2)cc1 (stereo not shown) [^177Lu-Ibu-Dα-PSMA, metal not drawn]	29	2.33 ± 0.71	0.37 ± 0.10	0.89 ± 0.27	0.49 ± 0.08	27.2 ± 3.31	0.84 ± 0.22	1.54 ± 0.35	0.35 ± 0.08	0.74 ± 0.20	0.90 ± 0.04	0.25 ± 0.08	22.5 ± 5.28	1.82 ± 0.03	60.8 ± 11.1	1.00 ± 0.21	49.4 ± 5.33	0.11 ± 0.02	0.18 ± 0.03	0.11 ± 0.02	Kidneys ([2]; 1 h p.i.): 73±2 % IA/g; Tumor-to-kidney ([2]; 1 h p.i.): 0.59±0.08; Blood ([2]; 24 h p.i.): 0.33 ± 0.06 % IA/g; Kidneys ([2]; 24 h p.i.): 18.2 ± 3.06 % IA/g; Liver ([2]; 24 h p.i.): 0.37 ± 0.04 % IA/g; Lung ([2]; 24 h p.i.): 0.39 ± 0.09 % IA/g; Muscle ([2]; 24 h p.i.): 0.07 ± 0.02 % IA/g; Salivary glands ([2]; 24 h p.i.): 0.21 ± 0.04 % IA/g; Spleen ([2]; 24 h p.i.): 0.46 ± 0.10 % IA/g; Stomach ([2]; 24 h p.i.): 0.12 ± 0.03 % IA/g; Tumor-to-blood ([2]; 24 h p.i.): 198 ± 32.6; Tumor-to-kidney ([2]; 24 h p.i.): 3.56 ± 0.34; Tumor-to-liver ([2]; 24 h p.i.): 196 and 196 ± 44.4; PC-3 flu Tumor ([2]; 24 h p.i.): 0.38 ± 0.05 % IA/g; PC-3 PIP Tumor ([2]; 24 h p.i.): 84.2±14.9 % IA/g
CC(C)Cc1ccc(C(C)C(=O)NC(CC(=O)NCCCCC(NC(=O)CN2CCN(CC(=O)O)CCN(CC(=O)O)CCN(CC(=O)O)CC2)C(=O)NCC2CCC(C(=O)NC(Cc3ccc4ccccc4c3)C(=O)NCCCCC(NC(=O)NC(CCC(=O)O)C(=O)O)C(=O)O)CC2)C(=O)O)cc1 (stereo not shown) [^177Lu-Ibu-Dβ-PSMA, metal not drawn]	49	13.2±1.15	1.87 ± 0.16	4.19 ± 0.23	1.81 ± 0.23	32.2 ± 2.46	3.87 ± 0.16	8.55 ± 3.30	1.79 ± 0.48	3.33 ± 0.15	2.60 ± 0.23	1.51 ± 0.18	5.03±0.73	2.06 ± 0.23	17.0 ± 1.73	3.86 ± 0.18	65.7 ± 7.31	0.26 ± 0.03	0.57 ± 0.02	0.40 ± 0.07	Blood ([2]; 24 h p.i.): 1.28 ± 0.05 % IA/g; Kidneys ([2]; 24 h p.i.): 21.3 ± 1.53 % IA/g; Liver ([2]; 24 h p.i.): 0.69 ± 0.07 % IA/g; Lung ([2]; 24 h p.i.): 1.17 ± 0.06 % IA/g; Muscle ([2]; 24 h p.i.): 0.22 ± 0.04 % IA/g; Salivary glands ([2]; 24 h p.i.): 0.61 ± 0.02 % IA/g; Spleen ([2]; 24 h p.i.): 1.03 ± 0.08 % IA/g; Stomach ([2]; 24 h p.i.): 0.48 ± 0.13 % IA/g; Tumor-to-blood ([2]; 24 h p.i.): 83.6 ± 9.06; Tumor-to-kidney ([2]; 24 h p.i.): 4.90 ± 0.29; Tumor-to-liver ([2]; 24 h p.i.): 151 ± 3.37; PC-3 flu Tumor ([2]; 24 h p.i.): 0.79 ± 0.12 % IA/g; PC-3 PIP Tumor ([2]; 24 h p.i.): 106±9.70 % IA/g
CC(C)Cc1ccc(C(C)C(=O)NC(CC(N)=O)C(=O)NCCCCC(NC(=O)CN2CCN(CC(=O)O)CCN(CC(=O)O)CCN(CC(=O)O)CC2)C(=O)NCC2CCC(C(=O)NC(Cc3ccc4ccccc4c3)C(=O)NCCCCC(NC(=O)NC(CCC(=O)O)C(=O)O)C(=O)O)CC2)cc1 (stereo not shown) [^177Lu-Ibu-N-PSMA, metal not drawn]	12	3.58 ± 1.39	0.56 ± 0.22	1.23 ± 0.61	0.50 ± 0.18	27.1 ± 8.37	1.27 ± 0.55	2.20 ± 0.95	0.47 ± 0.19	0.94 ± 0.38	1.40 ± 0.75	0.51 ± 0.23	20.1 ± 6.22	2.48 ± 0.11	18.2 ± 2.70	1.15 ± 0.52	65.4 ± 15.6	0.08 ± 0.02	0.12 ± 0.03	0.09 ± 0.02	Kidneys ([2]; 24 h p.i.): 8.02±1.13 % IA/g; Liver ([2]; 24 h p.i.): 0.32 ± 0.05 % IA/g; Lung ([2]; 24 h p.i.): 0.24 ± 0.06 % IA/g; Muscle ([2]; 24 h p.i.): 0.06 ± 0.02 % IA/g; Salivary glands ([2]; 24 h p.i.): 0.57 ± 0.35 % IA/g; Spleen ([2]; 24 h p.i.): 0.24 ± 0.06 % IA/g; Stomach ([2]; 24 h p.i.): 0.17 ± 0.09 % IA/g; Tumor-to-blood ([2]; 24 h p.i.): 227 ± 41.7; Tumor-to-kidney ([2]; 24 h p.i.): 6.90 ± 2.43; Tumor-to-liver ([2]; 24 h p.i.): 182 and 182 ± 52.6; PC-3 flu Tumor ([2]; 24 h p.i.): 0.23 ± 0.01 % IA/g; PC-3 PIP Tumor ([2]; 24 h p.i.): 58.0 ± 21.0 % IA/g
CC(C)Cc1ccc(C(C)C(=O)NCCCCC(NC(=O)CN2CCN(CC(=O)O)CCN(CC(=O)O)CCN(CC(=O)O)CC2)C(=O)NCC2CCC(C(=O)NC(Cc3ccc4ccccc4c3)C(=O)NCCCCC(NC(=O)NC(CCC(=O)O)C(=O)O)C(=O)O)CC2)cc1 (stereo not shown) [^177Lu-Ibu-PSMA, metal not drawn]	33	5.96 ± 1.53	1.01 ± 0.18	2.28 ± 0.68	1.00 ± 0.27	32.5 ± 0.86	2.77 ± 0.43	3.72 ± 0.73	0.97 ± 0.37	1.66 ± 0.36	1.76 ± 0.23	0.79 ± 0.26	14.1 ± 2.25	2.60 ± 0.08	29.7 ± 3.11	2.19 ± 0.52	81.3±6.28	0.20 ± 0.04	0.33 ± 0.06	0.23 ± 0.04	Blood ([2]; 24 h p.i.): 0.58 ± 0.09 % IA/g; Kidneys ([2]; 24 h p.i.): 16.5 ± 1.48 % IA/g; Liver ([2]; 24 h p.i.): 0.91 ± 0.12 % IA/g; Lung ([2]; 24 h p.i.): 0.62 ± 0.12 % IA/g; Muscle ([2]; 24 h p.i.): 0.12 ± 0.04 % IA/g; Salivary glands ([2]; 24 h p.i.): 0.34 ± 0.07 % IA/g; Spleen ([2]; 24 h p.i.): 0.68 ± 0.15 % IA/g; Stomach ([2]; 24 h p.i.): 0.23 ± 0.02 % IA/g; Tumor-to-blood ([2]; 24 h p.i.): 149 ± 16.7; Tumor-to-kidney ([2]; 24 h p.i.): 5.36 ± 0.73; Tumor-to-liver ([2]; 24 h p.i.): 95.4 ± 10.6; PC-3 flu Tumor ([2]; 24 h p.i.): 0.58 ± 0.19 % IA/g; PC-3 PIP Tumor ([2]; 24 h p.i.): 86.8±18.0 % IA/g and 86.9 ± 18.0 % IA/g
